# Measured values taken from BindingDB's records for doi:10.1016/j.bmcl.2014.03.095 (University of Utah, 2014).
# pIC50: −log10 of the molar value.
# Molecular target: Elongin-B/Elongin-C/von Hippel-Lindau disease tumor suppressor (Homo sapiens, UniProt P40337+Q15370+Q15369)
# Experiment: Displacement of FAM-DEALAHyp-YIPD from 6xHis-tagged VHL (1 to 213)/elongins-B/elonginC (unknown origin) expressed in Escherichia coli BL21 after 1 min by fluorescence polarization assay
# Sequence of Elongin-B/Elongin-C/von Hippel-Lindau disease tumor suppressor (P40337 whole entry, looked up): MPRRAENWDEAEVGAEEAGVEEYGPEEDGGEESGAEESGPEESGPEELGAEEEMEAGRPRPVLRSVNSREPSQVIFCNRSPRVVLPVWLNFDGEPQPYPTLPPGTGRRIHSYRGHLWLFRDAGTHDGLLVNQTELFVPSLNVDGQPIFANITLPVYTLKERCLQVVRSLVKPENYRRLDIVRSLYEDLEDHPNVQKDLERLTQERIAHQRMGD
# Sequence of Elongin-B/Elongin-C/von Hippel-Lindau disease tumor suppressor (Q15369 whole entry, looked up): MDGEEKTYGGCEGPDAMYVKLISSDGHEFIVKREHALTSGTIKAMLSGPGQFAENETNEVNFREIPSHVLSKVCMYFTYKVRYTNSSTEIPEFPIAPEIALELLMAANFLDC
# Sequence of Elongin-B/Elongin-C/von Hippel-Lindau disease tumor suppressor (Q15370 whole entry, looked up): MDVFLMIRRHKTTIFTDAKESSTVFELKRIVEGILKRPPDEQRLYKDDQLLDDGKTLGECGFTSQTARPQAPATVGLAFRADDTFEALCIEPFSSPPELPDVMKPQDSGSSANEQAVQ
structure (smiles),measurement,value
Cc1cc(CC(=O)N2C[C@H](O)C[C@H]2C(=O)NCc2cccc(Cl)c2)on1,pIC50,3.93
